In patent US8192962B2, “Processes for detecting toxic substances” (Daikin Industries, Ltd., priority 2001, dated 2012):

Test system: Unknown protein yeast genes
Assay: DNA chip mRNA expression in yeast, unknown protein yeast genes (Table 1)
Format: cell-based, Saccharomyces cerevisiae S288C
In short: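 Expression change after 2 h toxicant exposure (growth-inhibiting, sub-lethal) of log-phase S. cerevisiae S288C at 25° C. Oligo-dT-purified mRNA was labeled with Cy3-dUTP or Cy5-dUTP and hybridized >12 h at 65° C. to a genome-wide chip; ratio of scanned fluorescence to control.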

C[S+](C)[O-] [(15), dimethylsulfoxide]
The level of expressed mRNA in the presence of chemical substance/The level of expressed mRNA in the absence of chemical substance (yeast gene YLR008C): 0.7 | The level of expressed mRNA in the presence of chemical substance/The level of expressed mRNA in the absence of chemical substance (yeast gene YLR226W): 1.3 | The level of expressed mRNA in the presence of chemical substance/The level of expressed mRNA in the absence of chemical substance (yeast gene YLR297W): 0.7 | The level of expressed mRNA in the presence of chemical substance/The level of expressed mRNA in the absence of chemical substance (yeast gene YLR311C, incubated two hours with substance): 0.5 | The level of expressed mRNA in the presence of chemical substance/The level of expressed mRNA in the absence of chemical substance (yeast gene YLR346C): 1.0 | The level of expressed mRNA in the presence of chemical substance/The level of expressed mRNA in the absence of chemical substance (yeast gene YLR392C): 0.5 | The level of expressed mRNA in the presence of chemical substance/The level of expressed mRNA in the absence of chemical substance (yeast gene YLR415C): 1.0 | The level of expressed mRNA in the presence of chemical substance/The level of expressed mRNA in the absence of chemical substance (yeast gene YLR427W): 0.8 | The level of expressed mRNA in the presence of chemical substance/The level of expressed mRNA in the absence of chemical substance (yeast gene YLR460C): 0.7 | The level of expressed mRNA in the presence of chemical substance/The level of expressed mRNA in the absence of chemical substance (yeast gene YML013W): 2.2 | The level of expressed mRNA in the presence of chemical substance/The level of expressed mRNA in the absence of chemical substance (yeast gene YML029W): 0.8 | The level of expressed mRNA in the presence of chemical substance/The level of expressed mRNA in the absence of chemical substance (yeast gene YML041C): 1.0 | The level of expressed mRNA in the presence of chemical substance/The level of expressed mRNA in the absence of chemical substance (yeast gene YML079W): 0.3 | The level of expressed mRNA in the presence of chemical substance/The level of expressed mRNA in the absence of chemical substance (yeast gene YMR041C, incubated two hours with substance): 0.5 | The level of expressed mRNA in the presence of chemical substance/The level of expressed mRNA in the absence of chemical substance (yeast gene YMR068W): 2.2 | The level of expressed mRNA in the presence of chemical substance/The level of expressed mRNA in the absence of chemical substance (yeast gene YMR090W): 1.9 | The level of expressed mRNA in the presence of chemical substance/The level of expressed mRNA in the absence of chemical substance (yeast gene YMR160W): 1.5 | The level of expressed mRNA in the presence of chemical substance/The level of expressed mRNA in the absence of chemical substance (yeast gene YMR315W): 2.5 | The level of expressed mRNA in the presence of chemical substance/The level of expressed mRNA in the absence of chemical substance (yeast gene YNL026W): 0.8 | The level of expressed mRNA in the presence of chemical substance/The level of expressed mRNA in the absence of chemical substance (yeast gene YNL058C): 2.2 | The level of expressed mRNA in the presence of chemical substance/The level of expressed mRNA in the absence of chemical substance (yeast gene YNL063W): 0.7 | The level of expressed mRNA in the presence of chemical substance/The level of expressed mRNA in the absence of chemical substance (yeast gene YNL176C): 0.8 | The level of expressed mRNA in the presence of chemical substance/The level of expressed mRNA in the absence of chemical substance (yeast gene YNL194C): 0.5 | The level of expressed mRNA in the presence of chemical substance/The level of expressed mRNA in the absence of chemical substance (yeast gene YNL200C): 0.8 | The level of expressed mRNA in the presence of chemical substance/The level of expressed mRNA in the absence of chemical substance (yeast gene YNL211C): 0.8 | The level of expressed mRNA in the presence of chemical substance/The level of expressed mRNA in the absence of chemical substance (yeast gene YNL253W): 0.5 | The level of expressed mRNA in the presence of chemical substance/The level of expressed mRNA in the absence of chemical substance (yeast gene YNR051C): 1.2 | The level of expressed mRNA in the presence of chemical substance/The level of expressed mRNA in the absence of chemical substance (yeast gene YOL026C): 0.9 | The level of expressed mRNA in the presence of chemical substance/The level of expressed mRNA in the absence of chemical substance (yeast gene YOL031C): 4.4 | The level of expressed mRNA in the presence of chemical substance/The level of expressed mRNA in the absence of chemical substance (yeast gene YOL101C): 0.6 | The level of expressed mRNA in the presence of chemical substance/The level of expressed mRNA in the absence of chemical substance (yeast gene YOL150C): 1.8 | The level of expressed mRNA in the presence of chemical substance/The level of expressed mRNA in the absence of chemical substance (yeast gene YOR022C): 0.8 | The level of expressed mRNA in the presence of chemical substance/The level of expressed mRNA in the absence of chemical substance (yeast gene YOR049C): 1.3 | The level of expressed mRNA in the presence of chemical substance/The level of expressed mRNA in the absence of chemical substance (yeast gene YOR087W): 0.8 | The level of expressed mRNA in the presence of chemical substance/The level of expressed mRNA in the absence of chemical substance (yeast gene YOR138C): 1.0 | The level of expressed mRNA in the presence of chemical substance/The level of expressed mRNA in the absence of chemical substance (yeast gene YOR248W, incubated two hours with chemical substance): 8.8 | The level of expressed mRNA in the presence of chemical substance/The level of expressed mRNA in the absence of chemical substance (yeast gene YOR253W): 1.1 | The level of expressed mRNA in the presence of chemical substance/The level of expressed mRNA in the absence of chemical substance (yeast gene YOR267C): 1.3 | The level of expressed mRNA in the presence of chemical substance/The level of expressed mRNA in the absence of chemical substance (yeast gene YOR338W): 1.8 | The level of expressed mRNA in the presence of chemical substance/The level of expressed mRNA in the absence of chemical substance (yeast gene YPL005W): 1.2 | The level of expressed mRNA in the presence of chemical substance/The level of expressed mRNA in the absence of chemical substance (yeast gene YPL150W): 1.1 | The level of expressed mRNA in the presence of chemical substance/The level of expressed mRNA in the absence of chemical substance (yeast gene YPL152W): 2.3 | The level of expressed mRNA in the presence of chemical substance/The level of expressed mRNA in the absence of chemical substance (yeast gene YPL168W): 0.8 | The level of expressed mRNA in the presence of chemical substance/The level of expressed mRNA in the absence of chemical substance (yeast gene YPL180W): 0.7 | The level of expressed mRNA in the presence of chemical substance/The level of expressed mRNA in the absence of chemical substance (yeast gene YPL188W): 0.8 | The level of expressed mRNA in the presence of chemical substance/The level of expressed mRNA in the absence of chemical substance (yeast gene YPL221W): 1.0 | The level of expressed mRNA in the presence of chemical substance/The level of expressed mRNA in the absence of chemical substance (yeast gene YPL280W): 4.3 | The level of expressed mRNA in the presence of chemical substance/The level of expressed mRNA in the absence of chemical substance (yeast gene YPR049C): 1.5 | The level of expressed mRNA in the presence of chemical substance/The level of expressed mRNA in the absence of chemical substance (yeast gene YPR077C, cells incubated two hours with the chemical substance): 2.9 | The level of expressed mRNA in the presence of chemical substance/The level of expressed mRNA in the absence of chemical substance (yeast gene YPR148C): 1.7 | The level of expressed mRNA in the presence of chemical substance/The level of expressed mRNA in the absence of chemical substance (yeast gene YPR172W): 1.5
